Source: PubChem BioAssay AID330 (DTP/NCI, 2004)
Where “and” joins values, the source holds several entries; their conditions need not be identical. Equal entries are not always repeated. Inconclusive results and toxic doses are left out. How the source made its calls: active means survival T/C of 150% or more; inactive means T/C below 125% in these data.

Tested on: P388 leukemia ip, CD2F1 mice, survival T/C
Assay: NCI In Vivo Anticancer Drug Screen. Data for tumor model P388 Leukemia (intraperitoneal) in CD2F1 (CDF1) mice
Settings: endpoint: median survival time, higher = longer survival
In short: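 Mice carrying the transplanted tumor received test compound or vehicle. Survival was recorded in each group, and the value is the treated-group measurement divided by that of the vehicle-treated control group.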

[1] = dose: 50.0 mg/kg/injection, schedule: Q01DX005 (ip), vehicle: saline with Tween-80
[2] = dose: 100.0 mg/kg/injection, schedule: Q01DX005 (ip), vehicle: saline with Tween-80
[3] = dose: 200.0 mg/kg/injection, schedule: Q01DX005 (ip), vehicle: saline with Tween-80
[4] = dose: 50.0 mg/kg/injection, schedule: Q01DX005 (ip), vehicle: Klucel (hydroxypropylcellulose) (HPC)
[5] = dose: 100.0 mg/kg/injection, schedule: Q01DX005 (ip), vehicle: Klucel (hydroxypropylcellulose) (HPC)
[6] = dose: 50.0 mg/kg/injection, schedule: Q01DX009 (ip), vehicle: suspension in saline
[7] = dose: 100.0 mg/kg/injection, schedule: Q01DX009 (ip), vehicle: suspension in saline
[8] = dose: 200.0 mg/kg/injection, schedule: Q01DX009 (ip), vehicle: suspension in saline
[9] = dose: 240.0 mg/kg/injection, schedule: Q01DX005 (ip), vehicle: saline with Tween-80
[10] = dose: 12.5 mg/kg/injection, schedule: Q01DX009 (ip), vehicle: Klucel (hydroxypropylcellulose) (HPC)
[11] = dose: 25.0 mg/kg/injection, schedule: Q01DX009 (ip), vehicle: Klucel (hydroxypropylcellulose) (HPC)
[12] = dose: 50.0 mg/kg/injection, schedule: Q01DX009 (ip), vehicle: saline with Tween-80
[13] = dose: 100.0 mg/kg/injection, schedule: Q01DX009 (ip), vehicle: saline with Tween-80
[14] = dose: 200.0 mg/kg/injection, schedule: Q01DX009 (ip), vehicle: saline with Tween-80
[15] = dose: 100.0 mg/kg/injection, schedule: Q04DX003 (ip), vehicle: saline with Tween-80
[16] = dose: 200.0 mg/kg/injection, schedule: Q04DX003 (ip), vehicle: saline with Tween-80
[17] = dose: 400.0 mg/kg/injection, schedule: Q04DX003 (ip), vehicle: saline with Tween-80
[18] = dose: 50.0 mg/kg/injection, schedule: Q01DX009 (ip), vehicle: Klucel (hydroxypropylcellulose) (HPC)
[19] = dose: 6.25 mg/kg/injection, schedule: Q01DX009 (ip), vehicle: saline
[20] = dose: 12.5 mg/kg/injection, schedule: Q01DX009 (ip), vehicle: saline
[21] = dose: 25.0 mg/kg/injection, schedule: Q01DX009 (ip), vehicle: saline
[22] = dose: 25.0 mg/kg/injection, schedule: Q01DX005 (ip), vehicle: Klucel (hydroxypropylcellulose) (HPC)

Measured: T/C

O=C(Oc1ccccc1[N+](=O)[O-])C1CCCN1C(=O)OCc1ccccc1 (centres undefined)
inactive: dose: 25.0 mg/kg/injection, schedule: Q01DX005 (ip), vehicle: saline with Tween-80 104 % of control | [1] 109 % of control | [2] 102 % of control | [3] 99 % of control

CN1C(=O)CC(=O)N(c2ccccc2)c2cc(Cl)ccc21
inactive: [4] 103 % of control | [5] 97 % of control

Cc1cc(NC(=S)SCc2ccc(F)cc2)c([N+](=O)[O-])cc1C
inactive: [6] 93 % of control | [7] 90 % of control | [8] 98 % of control

Oc1ccc(Br)cc1C=NCCS
inactive: dose: 15.0 mg/kg/injection, schedule: Q01DX005 (ip), vehicle: saline with Tween-80 97 % of control | dose: 30.0 mg/kg/injection, schedule: Q01DX005 (ip), vehicle: saline with Tween-80 94 % of control | [9] 89 % of control

O=[N+]([O-])c1ccc(S(=O)/N=C/c2ccccc2)c([N+](=O)[O-])c1 (centres undefined)
inactive: [10] 119 % of control | [11] 118 % of control

CCCCCCCCCCCCCCCCCC(=O)O.[Co]
inactive: [12] 87 % of control and 95 % of control and 97 % of control | [13] 100 % of control and 103 % of control and 97 % of control | [14] 92 % of control

CCCCCCCN(CCCCCCC)CC(O)c1c(OC)c2cc(Br)ccc2c2ccc(Br)cc12 (centres undefined)
inactive: dose: 7.5 mg/kg/injection, schedule: Q01DX009 (ip), vehicle: saline with Tween-80 93 % of control | dose: 15.0 mg/kg/injection, schedule: Q01DX009 (ip), vehicle: saline with Tween-80 100 % of control | dose: 30.0 mg/kg/injection, schedule: Q01DX009 (ip), vehicle: saline with Tween-80 93 % of control

O=C1C(=O)c2ccccc2C(O)=C1CC=C(Br)Br
inactive: [12] 100 % of control | [13] 100 % of control | [15] 100 % of control | [16] 110 % of control

CC1CC1(C1C=CCCC1)C1C=CCCC1 (centres undefined)
inactive: [1] 100 % of control | [2] 100 % of control | [3] 108 % of control

CN(C)c1nc(N/N=C\C(O)C(O)C(O)C(O)CO)nc(N(C)C)n1 (centres undefined)
inactive: [15] 112 % of control | [16] 103 % of control | [17] 102 % of control

CP1(=O)CC23CCCCC2(C1)O3 (centres undefined)
inactive: [18] 109 % of control | dose: 100.0 mg/kg/injection, schedule: Q01DX009 (ip), vehicle: Klucel (hydroxypropylcellulose) (HPC) 104 % of control | dose: 200.0 mg/kg/injection, schedule: Q01DX009 (ip), vehicle: Klucel (hydroxypropylcellulose) (HPC) 109 % of control

CC1=CCCC(C(C)O)O1 (centres undefined)
inactive: [19] 107 % of control | [20] 104 % of control | [21] 105 % of control | dose: 200.0 mg/kg/injection, schedule: Q01DX009 (ip), vehicle: saline 87 % of control

OCN1CCC23c4c5ccc(O)c4OC2C(O)C=CC3C1C5 (centres undefined)
inactive: [1] 100 % of control | [2] 100 % of control | [3] 100 % of control

CN=C(c1ccc(NC(=O)c2cccc(C(=O)Nc3ccc(C(=NC)N(C)C)cc3)c2)cc1)N(C)C
inactive: dose: 1.56 mg/kg/injection, schedule: Q01DX005 (ip), vehicle: saline 102 % of control | dose: 3.12 mg/kg/injection, schedule: Q01DX005 (ip), vehicle: saline 102 % of control | dose: 6.25 mg/kg/injection, schedule: Q01DX005 (ip), vehicle: saline 106 % of control and 96 % of control

CCCCC(CC)C(=O)[O][Sn]([CH2]CCC)([CH2]CCC)[O]C(=O)C(CC)CCCC (centres undefined)
inactive: dose: 1.5 mg/kg/injection, schedule: Q01DX009 (ip), vehicle: saline sonified 104 % of control | dose: 3.0 mg/kg/injection, schedule: Q01DX009 (ip), vehicle: saline sonified 95 % of control | dose: 6.0 mg/kg/injection, schedule: Q01DX009 (ip), vehicle: saline sonified 118 % of control

CCCCC(CC)COP(=O)(CC(CC)CCCC)OCC(CC)CCCC (centres undefined)
inactive: [19] 109 % of control | [20] 109 % of control | [21] 109 % of control | dose: 25.0 mg/kg/injection, schedule: Q04DX003 (ip), vehicle: saline 100 % of control | dose: 50.0 mg/kg/injection, schedule: Q04DX003 (ip), vehicle: saline 100 % of control | dose: 100.0 mg/kg/injection, schedule: Q04DX003 (ip), vehicle: saline 113 % of control

C[N+](C)=C1C=CC(=C2C=CSC=C2)C=C1
inactive: [20] 108 % of control and 112 % of control

Cn1c(=O)c2nc3c(=O)n(C)c(=O)n(C)c3nc2n(C)c1=O
inactive: dose: 6.25 mg/kg/injection, schedule: Q01DX009 (ip), vehicle: Klucel (hydroxypropylcellulose) (HPC) 100 % of control and 102 % of control and 118 % of control | [10] 101 % of control and 103 % of control and 116 % of control | [11] 104 % of control and 120 % of control | [18] 111 % of control

Nc1c(C(=O)Nc2ccc(NC(=O)c3ccc4c(c3N)C(=O)c3ccccc3C4=O)c3c2C(=O)c2ccccc2C3=O)ccc2c1C(=O)c1ccccc1C2=O
inactive: [6] 103 % of control | [7] 106 % of control | [8] 103 % of control

Cn1c2ccccc2c(=O)c2c(O)cc3c(c21)N=CC(C)(C)O3
inactive: dose: 60.0 mg/kg/injection, schedule: Q01DX005 (ip), vehicle: saline with Tween-80 96 % of control | dose: 120.0 mg/kg/injection, schedule: Q01DX005 (ip), vehicle: saline with Tween-80 93 % of control | [9] 93 % of control

CCC(=O)c1c(O)cc(O)cc1O
inactive: dose: 50.0 mg/kg/injection, schedule: Q04DX003 (ip), vehicle: saline with Tween-80 103 % of control | [15] 103 % of control | [16] 102 % of control | [17] 103 % of control

CCCCCCCCCCCCCC[N+]1([O-])CCCC1
inactive: dose: 50.0 mg/kg/injection, schedule: Q01DX009 (ip), vehicle: saline 94 % of control

Cc1ccc(N)c(N)c1
inactive: [13] 99 % of control | dose: 100.0 mg/kg/injection, schedule: Q01DX009 (ip), vehicle: saline 107 % of control | [14] 109 % of control | dose: 400.0 mg/kg/injection, schedule: Q01DX009 (ip), vehicle: saline with Tween-80 123 % of control

CC(=O)[O][Sn]([CH3])([CH3])[c]1ccccc1
inactive: dose: 1.56 mg/kg/injection, schedule: Q01DX009 (ip), vehicle: saline 98 % of control and 104 % of control | dose: 3.12 mg/kg/injection, schedule: Q01DX009 (ip), vehicle: saline 98 % of control and 110 % of control | [19] 98 % of control and 117 % of control and 96 % of control | [20] 104 % of control and 120 % of control

CCN(CC)CCOC(=O)c1c(C)oc2cc3c(C(=O)OCCN(CC)CC)c(C)oc3cc12
inactive: [22] 98 % of control | [4] 92 % of control | [5] 94 % of control | dose: 200.0 mg/kg/injection, schedule: Q01DX005 (ip), vehicle: Klucel (hydroxypropylcellulose) (HPC) 113 % of control

CCOC(=O)C(Nc1cc([N+](=O)[O-])ccc1C(=O)OC(C)C)(OC(C)C)C(=O)OCC
inactive: dose: 100.0 mg/kg/injection, schedule: Q04DX002 (ip), vehicle: Klucel (hydroxypropylcellulose) (HPC) 90 % of control | dose: 200.0 mg/kg/injection, schedule: Q04DX002 (ip), vehicle: Klucel (hydroxypropylcellulose) (HPC) 91 % of control | dose: 400.0 mg/kg/injection, schedule: Q04DX002 (ip), vehicle: Klucel (hydroxypropylcellulose) (HPC) 90 % of control

COc1ccc(C(=O)C(=O)c2ccccc2)cc1
inactive: dose: 60.0 mg/kg/injection, schedule: Q01DX005 (ip), vehicle: Klucel (hydroxypropylcellulose) (HPC) 105 % of control | dose: 120.0 mg/kg/injection, schedule: Q01DX005 (ip), vehicle: Klucel (hydroxypropylcellulose) (HPC) 100 % of control | dose: 240.0 mg/kg/injection, schedule: Q01DX005 (ip), vehicle: Klucel (hydroxypropylcellulose) (HPC) 98 % of control

O=C(CCCN1CCN(c2cc3ccccc3cn2)CC1)c1ccc(F)cc1
inactive: dose: 12.5 mg/kg/injection, schedule: Q01DX005 (ip), vehicle: Klucel (hydroxypropylcellulose) (HPC) 109 % of control | [22] 109 % of control | [4] 110 % of control and 115 % of control
